Test results reported in publication PMC12606464, “Investigating NFE2L1 activators for targeted protein aggregate clearance: a follow-up study” (RSC Medicinal Chemistry, 2025).
pEC50: −log10 of the molar value. Like-named read-outs stand apart in the source and are kept apart here.

System: NFE2L1 pathway
Test: 3×PSMA4-ARE-LUC dual luciferase reporter assay in HEK293 cells
Assay type: cell-based, human
Conditions: for pEC50 / fold induction at 5 µM: Homo sapiens; for pEC50: HEK293; for fold induction at 5 µM: 16 h, HEK293, luminescence relative to DMSO-treated cells, read-out: NFE2L1 activation [5 μM]
How it was run: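 HEK293 cells carrying the 3×PSMA4-ARE luciferase reporter (with pRL-TK) were treated with compounds for 16 h, then luciferase activity was measured. Values are fold change in luminescence over DMSO-treated cells; EC50 from four-parameter logistic or bell-shaped fits with 1/Y^2 weighting.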

[1] = PSMA4-ARE-luc2P reporter, four-parameter logistic or bell-shaped model, order of models not stated, read-out: EC50 (first value)
[2] = [Agonist] vs. Response, variable slope (four parameters), weighting 1/Y^2, Fig. S1
[3] = Bell-shaped fit, X is concentration, weighting 1/Y^2, Fig. S1
[4] = Bell-shaped fit, X is concentration, weighting 1/Y^2, Fig. S1, read-out: EC50_1 (best-fit)
[5] = PSMA4-ARE-luc2P reporter, four-parameter logistic or bell-shaped model, order of models not stated, read-out: EC50

Row | pEC50 [1] | pEC50 ([Agonist] vs. Response, variable slope (four parameters), weighting 1/Y^2, Fig. S1, read-out: EC50 (best-fit)) | Structure (SMILES) | fold induction at 5 µM | Bottom (best-fit) [2] | Hillslope (best-fit) [2] | Span (best-fit) [2] | Top (best-fit) [2] | logEC50 (best-fit) [2] | Dip (best-fit) [3] | Plateau1 (best-fit) [3] | Plateau2 (best-fit) [3] | nH1 (best-fit) [3] | nH2 (best-fit) [3] | pEC50 [4] | pEC50 [5]
1 | 4.98 | – | COc1ccc(/C=C2\CC(N)C/C(=C\c3ccc(OC)c(OC)c3)C2=O)cc1OC (stereo not drawn) [RUN-81] | 2.1 | 0.95 | 2.70 | 18.71 | 19.66 | 1.02 | – | – | – | – | – | – | –
2 | 5.42 | 5.42 | COc1ccc(/C=C2\CC(NC(=O)c3ccccn3)C/C(=C\c3ccc(OC)c(OC)c3)C2=O)cc1OC (stereo not drawn) [RUN-94] | 19.4 | 1.13 | 55.77 | 9.24 | 10.37 | 0.58 | 8.602 | -2.174 | 11.95 | Unstable | 18.05 | 5.42 | 5.42

Row | Structure (SMILES) | pEC50 [1] | pEC50 ([Agonist] vs. Response, variable slope (four parameters), weighting 1/Y^2, Fig. S1, read-out: EC50 (best-fit)) | fold induction at 5 µM | Bottom (best-fit) [2] | Hillslope (best-fit) [2] | Span (best-fit) [2] | Top (best-fit) [2] | logEC50 (best-fit) [2] | Dip (best-fit) [3] | Plateau1 (best-fit) [3] | Plateau2 (best-fit) [3] | nH1 (best-fit) [3] | nH2 (best-fit) [3] | pEC50 [4] | pEC50 [5]
3 | COc1ccc(/C=C2\CC(NC(=O)C3CCCC3)C/C(=C\c3ccc(OC)c(OC)c3)C2=O)cc1OC (stereo not drawn) [RUN-89] | 5.51 | – | 11.7 | 1.08 | 7.14 | 6.12 | 7.20 | 0.49 | 19.12 | 1.124 | 5.392 | -4.123 | -7.321 | 5.31 | 5.31
